Paper PMC3611663 (American heart journal, 2011)
Read-outs that look alike come from different tables or passages of the source. Bridge positions count the residues as written; N and C are the ends. Square brackets hold non-standard residues; d marks the D form. Peptide text beside a SMILES is read from it. hArg = N=C(N)NCCCC[C@H](N)C(=O)O; Mpa = O=C(O)CCS

Columns and labels:
[1] = format: in vivo, human
GP IIb/IIIa receptor = details: PRIDE study; cited from earlier work

N=C(N)NCCCC[C@@H]1NC(=O)CCSSC[C@@H](C(N)=O)NC(=O)[C@@H]2CCCN2C(=O)[C@H](Cc2c[nH]c3ccccc23)NC(=O)[C@H](CC(=O)O)NC(=O)CNC1=O [Eptifibatide] ([Mpa][hArg]GDWPC-NH2; disulfide 1-7 (inferred); C-terminus assumed)
Slope of plasma concentration versus body weight (ANCOVA regression) ([1]; ABW dosing): 20.6 | Patients with plasma Eptifibatide >1600 ng/mL ([1]; ABW-based dosing (N=22)): 14 (64) no. (%) | Patients with plasma Eptifibatide ≤1600 ng/mL ([1]; ABW-based dosing (N=22)): 8 (36) no. (%) | Slope of plasma concentration versus body weight (ANCOVA regression) ([1]; IBW dosing): 6.9 | Patients with plasma Eptifibatide >1600 ng/mL ([1]; IBW-based dosing (N=20)): 2 (10) no. (%) | Patients with plasma Eptifibatide ≤1600 ng/mL ([1]; IBW-based dosing (N=20)): 18 (90) no. (%) | Slope of plasma concentration versus body weight (ANCOVA regression) ([1]; standard dosing): −6.4 | Patients with plasma Eptifibatide >1600 ng/mL ([1]; standard dosing (N=19)): 10 (53) no. (%) | Patients with plasma Eptifibatide ≤1600 ng/mL ([1]; standard dosing (N=19)): 9 (47) no. (%) | Plasma concentration necessary to achieve >80% occupancy of the GP IIb/IIIa receptor (GP IIb/IIIa receptor): approximately 1600 ng/mL
